Where a SMILES comes first, the peptide text is derived from it. Bridges are numbered along the chain shown (N, C = ends).

The target of experiment [1] is T1, Nav1.4 (Rattus norvegicus, UniProt P15390).
T1 construct: expressed in transfected cells; host or cells: HEK293T
The experiment in a line: Whole-cell patch-clamp, Nav1.4 current in HEK293T cells. The class given is cell-based. The note with it: 50 ms steps to −10 mV from −90 mV, n = 4–6, read-out: IC50 for inhibition of Nav1.4 current. An excerpt:
(§1) Rat Nav1.4, human Nav1.7 and rat Nav1.8 cDNA clones were kindly gift from Dr. Theodore Cummins (Stark Neurosciences Research Institute, Indiana University School of Medicine, Indianapolis, IN, United States) and were subcloned into the pCMV or pCDNA3.1-blank vectors. Human Nav1.9 was subcloned into the pEGFP-N1 vector. The C-terminal of hNav1.9 was linked to GFP to construct a fusion protein channel (hNav1.9-eGFP), which was as described in our previous studies ([Zhou et al., 2017]). Mutations were made using the site-directed mutation method or recombination-based cloning using GenBuilder™ Cloning Kit (GenScript, United States). Primers presented in Supplementary Tables 1–4. All mutations were verified by DNA sequencing.
(§2) ND7/23 and HEK293T cells were maintained at 37°C in a humidified 5% CO2 incubator in Dulbecco’s Modified Eagle’s Medium (DMEM) supplemented with 10% fetal bovine serum, 100 μg/ml streptomycin, 100 U/ml penicillin, and 2 mM L-glutamine. The cells were trypsinized, diluted with 1 ml of culture medium, and seeded at a 1:5 ratio in 35 mm Petri dishes for culture. When grown to 80–90% confluence, the ND7/23 cells were transfected with hNav1.9-GFP or hNav1.9-GFP mutants using the X-tremeGENE HP DNA Transfection Reagent (Roche, Basel, Switzerland) according to the manufacturer’s instructions. […]
For orientation: In patch-clamp work, channel activity is measured electrically.

Experiment [2] has as its target T2, Nav1.7 (Homo sapiens, UniProt Q15858).
T2 construct: expressed in transfected cells; host or cells: HEK293T
Description: Whole-cell patch-clamp, Nav1.7 current in HEK293T cells. The settings on record: 50 ms steps to −10 mV from −90 mV, n = 4–6, read-out: IC50 for inhibition of Nav1.7 current. The class given is cell-based.
From the text: as §1, §2

In experiment [3] the target is T3, Nav1.9/1.8 DIV VSD (Homo sapiens, UniProt Q9UI33, A1385V/A1393E/C1434F/D1399G/DEL1452-1455/H1400R/I1367A/I1373M/I1377C/I1397V/I1408V/I1415M/I1417M/I1446F/I1464V/INS1447AILK/K1392E/K1395T/L1401I/L1411G/L1414V/L1431V/L1438I/M1394K/M1445L/N1389E/P1391G/P1456Y/P1458S/R1481K/S1365R/S1374V/S1382T/S1387T/S1396K/T1444L/T1448S/V1404F/V1407A/V1435I/V1442G/V1465I/V1477I/W1403Q/Y1388D).
T3 construct: expressed in transfected cells; host or cells: ND7/23
Description: Patch-clamp, chimera Nav1.9/1.8 DIV VSD. The class given is cell-based, human Nav1.9 / rat Nav1.8. The settings on record: mean ± SEM, n = 4; I95/Ipeak; read-out: EC50 for inhibition of the fast inactivation.
From the text: as §1, §2

For experiment [4], the target named is T4, Nav1.9 (Homo sapiens, UniProt Q9UI33).
T4 construct: expressed in transfected cells; host or cells: ND7/23
The experiment in a line: Whole-cell patch-clamp, fast inactivation of Nav1.9 in ND7/23 cells. The experiment is classed as cell-based. The note with it: 100 ms depolarization to −40 mV from −120 mV, Hill fit, mean ± SEM, n = 6, read-out: EC50 for inhibition of the fast inactivation of Nav1.9.
From the text: as §1, §2

Experiment [5] deals with voltage sensor of Nav channels. The settings on record: ref Xiao et al., 2008, 2010, Zhou et al., 2020, Liu et al., 2013; cited from earlier work. An excerpt:
Gating modifier toxins typically affect channel gating by regulating the voltage-sensor of the channel. […] Ther ...

The test system of experiment [6] is Kv2.1 channel. The settings on record: ref Chen et al., 2012; Bemporad et al., 2006; cited from earlier work. An excerpt: The venom of the spider Grammostola rosea contains several classes of peptide toxins that target ion channels (Figure 1A). […] Due to poor heterologous expression in mammal cells, pharmacological studies of the Nav1.9 channel have lagged. Previously, we succeeded in achieving functional ...

For experiment [7], the system named is Nav1.7 channel. On the set-up: method as in 3 sources, one per row (each row's own in cited_ref): ref Murray et al., 2015 ||| ref Chen et al., 2020 ||| ref Xiao et al., 2010. The note with it: ProTx-II; ref Xiao et al., 2010; cited from earlier work.

T2 sequence (Q15858 whole entry): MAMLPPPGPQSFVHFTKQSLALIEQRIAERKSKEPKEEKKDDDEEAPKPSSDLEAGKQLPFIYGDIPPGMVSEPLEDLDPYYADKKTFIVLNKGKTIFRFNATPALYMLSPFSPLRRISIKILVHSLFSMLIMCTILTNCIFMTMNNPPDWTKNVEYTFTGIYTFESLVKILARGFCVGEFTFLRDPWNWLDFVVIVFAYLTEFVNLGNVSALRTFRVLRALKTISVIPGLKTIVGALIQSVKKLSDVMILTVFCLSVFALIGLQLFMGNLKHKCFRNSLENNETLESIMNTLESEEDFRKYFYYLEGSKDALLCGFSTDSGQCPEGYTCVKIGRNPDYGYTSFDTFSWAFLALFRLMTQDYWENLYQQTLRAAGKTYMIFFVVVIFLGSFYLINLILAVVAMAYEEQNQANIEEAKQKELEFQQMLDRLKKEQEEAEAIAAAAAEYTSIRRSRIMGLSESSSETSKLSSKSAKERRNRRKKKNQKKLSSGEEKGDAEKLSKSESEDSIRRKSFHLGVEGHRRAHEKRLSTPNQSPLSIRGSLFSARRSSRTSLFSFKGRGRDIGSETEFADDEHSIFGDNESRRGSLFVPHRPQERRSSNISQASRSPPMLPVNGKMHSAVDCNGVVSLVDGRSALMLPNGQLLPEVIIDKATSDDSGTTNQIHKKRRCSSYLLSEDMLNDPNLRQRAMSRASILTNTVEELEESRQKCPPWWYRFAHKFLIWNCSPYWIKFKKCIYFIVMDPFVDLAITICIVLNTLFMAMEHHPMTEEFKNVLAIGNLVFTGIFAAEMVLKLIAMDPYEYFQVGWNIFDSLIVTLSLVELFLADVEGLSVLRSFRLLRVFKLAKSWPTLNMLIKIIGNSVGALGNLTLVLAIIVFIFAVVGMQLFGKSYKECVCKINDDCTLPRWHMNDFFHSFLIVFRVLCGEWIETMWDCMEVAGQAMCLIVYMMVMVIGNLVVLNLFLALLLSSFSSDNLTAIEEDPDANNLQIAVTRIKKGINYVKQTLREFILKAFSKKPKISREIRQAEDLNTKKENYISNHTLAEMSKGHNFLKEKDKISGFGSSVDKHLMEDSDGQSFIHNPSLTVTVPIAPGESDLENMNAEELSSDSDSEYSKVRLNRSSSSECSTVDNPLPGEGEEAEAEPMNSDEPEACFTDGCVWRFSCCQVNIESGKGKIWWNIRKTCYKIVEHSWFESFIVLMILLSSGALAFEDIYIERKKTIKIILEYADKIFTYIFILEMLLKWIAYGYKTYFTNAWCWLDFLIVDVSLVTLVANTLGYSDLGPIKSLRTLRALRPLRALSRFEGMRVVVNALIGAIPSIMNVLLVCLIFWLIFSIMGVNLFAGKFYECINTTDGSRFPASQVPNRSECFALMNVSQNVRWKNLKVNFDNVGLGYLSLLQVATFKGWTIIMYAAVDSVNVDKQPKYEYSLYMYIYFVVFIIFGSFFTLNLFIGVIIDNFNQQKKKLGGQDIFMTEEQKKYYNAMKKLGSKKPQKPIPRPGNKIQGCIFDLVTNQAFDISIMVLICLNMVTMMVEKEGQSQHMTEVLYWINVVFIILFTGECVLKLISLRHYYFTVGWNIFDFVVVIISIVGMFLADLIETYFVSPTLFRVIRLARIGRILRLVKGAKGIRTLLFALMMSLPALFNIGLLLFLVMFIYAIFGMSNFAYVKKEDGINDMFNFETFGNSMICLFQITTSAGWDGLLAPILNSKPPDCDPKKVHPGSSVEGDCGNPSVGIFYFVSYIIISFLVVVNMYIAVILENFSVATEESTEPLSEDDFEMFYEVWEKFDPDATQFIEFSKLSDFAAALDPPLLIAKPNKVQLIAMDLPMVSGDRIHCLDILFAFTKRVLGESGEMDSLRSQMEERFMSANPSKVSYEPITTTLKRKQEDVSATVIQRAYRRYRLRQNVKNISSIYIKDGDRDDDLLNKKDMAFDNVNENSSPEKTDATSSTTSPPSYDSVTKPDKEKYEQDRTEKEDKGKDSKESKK
T3 sequence (Q9UI33 with tags, fused parts or gaps with the stated changes): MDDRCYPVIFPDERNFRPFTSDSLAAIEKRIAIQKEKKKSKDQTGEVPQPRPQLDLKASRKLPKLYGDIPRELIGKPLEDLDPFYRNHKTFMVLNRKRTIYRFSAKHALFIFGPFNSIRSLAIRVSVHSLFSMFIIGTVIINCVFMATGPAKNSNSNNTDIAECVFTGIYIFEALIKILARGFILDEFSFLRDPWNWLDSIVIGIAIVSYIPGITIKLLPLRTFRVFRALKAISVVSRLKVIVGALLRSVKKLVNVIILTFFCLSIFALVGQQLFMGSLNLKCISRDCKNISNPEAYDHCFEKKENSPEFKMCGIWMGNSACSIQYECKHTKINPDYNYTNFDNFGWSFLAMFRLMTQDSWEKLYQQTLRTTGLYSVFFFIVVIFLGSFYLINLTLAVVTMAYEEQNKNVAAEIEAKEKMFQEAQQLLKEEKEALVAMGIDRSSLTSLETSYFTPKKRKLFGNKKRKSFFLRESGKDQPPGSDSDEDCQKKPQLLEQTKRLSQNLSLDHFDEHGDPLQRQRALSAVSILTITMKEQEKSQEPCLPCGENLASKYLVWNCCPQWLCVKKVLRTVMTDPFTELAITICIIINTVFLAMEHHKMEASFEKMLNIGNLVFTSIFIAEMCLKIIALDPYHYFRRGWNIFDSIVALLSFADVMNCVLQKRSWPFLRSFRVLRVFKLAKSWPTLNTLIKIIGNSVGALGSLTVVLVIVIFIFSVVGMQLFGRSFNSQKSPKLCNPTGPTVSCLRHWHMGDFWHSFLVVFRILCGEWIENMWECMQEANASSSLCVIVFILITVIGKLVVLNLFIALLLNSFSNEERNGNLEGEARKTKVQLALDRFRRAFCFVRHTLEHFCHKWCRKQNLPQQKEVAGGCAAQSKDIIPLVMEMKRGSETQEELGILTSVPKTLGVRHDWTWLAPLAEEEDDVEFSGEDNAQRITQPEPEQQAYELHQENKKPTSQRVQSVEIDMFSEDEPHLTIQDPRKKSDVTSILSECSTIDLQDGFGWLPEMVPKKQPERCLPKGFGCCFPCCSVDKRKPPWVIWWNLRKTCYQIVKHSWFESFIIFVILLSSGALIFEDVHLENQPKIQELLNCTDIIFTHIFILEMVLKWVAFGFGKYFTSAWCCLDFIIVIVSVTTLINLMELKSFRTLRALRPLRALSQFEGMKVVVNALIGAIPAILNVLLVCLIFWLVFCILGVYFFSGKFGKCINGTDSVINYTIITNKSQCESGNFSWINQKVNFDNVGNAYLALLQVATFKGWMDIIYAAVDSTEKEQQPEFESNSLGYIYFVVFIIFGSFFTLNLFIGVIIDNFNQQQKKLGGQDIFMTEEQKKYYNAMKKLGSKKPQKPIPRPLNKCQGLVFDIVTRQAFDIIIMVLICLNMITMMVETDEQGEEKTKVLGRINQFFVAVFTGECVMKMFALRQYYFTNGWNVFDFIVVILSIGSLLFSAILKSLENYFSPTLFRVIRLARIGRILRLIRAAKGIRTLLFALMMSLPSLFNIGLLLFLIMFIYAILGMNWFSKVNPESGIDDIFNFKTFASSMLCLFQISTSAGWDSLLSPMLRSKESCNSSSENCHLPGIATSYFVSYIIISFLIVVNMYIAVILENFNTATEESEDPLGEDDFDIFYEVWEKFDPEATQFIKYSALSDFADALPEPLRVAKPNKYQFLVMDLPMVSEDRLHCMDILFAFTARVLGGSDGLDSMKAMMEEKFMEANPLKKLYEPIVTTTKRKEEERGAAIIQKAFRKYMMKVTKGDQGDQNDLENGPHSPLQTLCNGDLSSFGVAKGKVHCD

As for `CC[C@H](C)[C@@H]1NC(=O)[C@H](CC(N)=O)NC(=O)[C@@H]2CCCN2C(=O)[C@H](Cc2c[nH]c3ccccc23)NC(=O)[C@H](CCCCN)NC(=O)[C@H](CCCNC(=N)N)NC(=O)[C@H](CCCCN)NC(=O)[C@@H]2CSSC[C@@H]3NC(=O)[C@H](CO)NC(=O)CNC(=O)[C@H](Cc4c[nH]c5ccccc45)NC(=O)[C@H](Cc4ccccc4)NC(=O)[C@H](CCC(N)=O)NC(=O)[C@H](CCCCN)NC(=O)[C@@H](NC(=O)[C@@H](N)CCC(=O)O)CSSC[C@H](NC(=O)[C@H](CSSC[C@@H](C(=O)N[C@@H](CC(C)C)C(=O)N[C@@H](Cc4c[nH]c5ccccc45)C(=O)N[C@@H](CC(=O)O)C(=O)NCC(=O)N[C@H](C(=O)N[C@@H](Cc4ccccc4)C(=O)N[C@@H](CO)C(=O)N[C@@H](CCCCN)C(=O)O)[C@@H](C)O)NC1=O)NC(=O)[C@H](CC(=O)O)NC(=O)[C@H](CO)NC(=O)[C@H](CC(=O)O)NC(=O)[C@H](CCCNC(=N)N)NC(=O)[C@H](CO)NC3=O)C(=O)N[C@@H](CCCCN)C(=O)N[C@@H](Cc1c[nH]cn1)C(=O)N[C@@H](CC(C)C)C(=O)NCC(=O)N2` [Gr4b, δ-theraphotoxin-Gr4b] (H-ECKQFWGSCSRDSDCCKHLGCKRKWPNICLWDGTFSK-OH; disulfide 2-16, 9-21, 15-29), the half-maximal inhibitory concentration (IC50) came out at 411 ± 184 nM in experiment [1] and 27 ± 3 nM in experiment [2]. The EC50 in experiment [3] is 1500 ± 250 nM; in experiment [4] it was 25 ± 1 nM.

On to HWTX-IV, for which, in experiment [5], the “reversal of toxin binding by depolarization” value is reported as “reversed by prolonged strong depolarizations”.

With “HaTx1 (ECRYLFGGCKTTSDCCKHLGCKFRDKYCAWDFTFS; UniProt P56852 50-84, looked up)”, the “inhibition of Kv2.1 currents” value in experiment [6] is reported as “significantly inhibit the currents of the Kv2.1 channel”.

ProTx-II: in experiment [7], the “inhibition of Nav1.7 current, voltage dependence” value is reported as “inhibits the current of the Nav1.7 channel with a significant voltage dependence”.

In general, IC50 refers to the concentration that gives 50% inhibition. What is called EC50 is the concentration that produces a half-maximal response.
